The values that follow come from US20220386606A1, “SPECIFICALLY SUBSTITUTED 3-PHENYL-5-SPIROCYCLOPENTYL-3-PYRROLIN-2-ONES AND THEIR USE AS HERBICIDES” (Bayer Aktiengesellschaft, priority 2019, published 2022).

Assay [1] relates to ALOMY. The experiment in a line: Post-emergence herbicidal action against ALOMY. The assay is classed as in vivo, Alopecurus myosuroides. The conditions noted are these: 80 g/ha, visual assessment after about 3 weeks. Put shortly: (§1)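 Weeds were grown in sandy loam in a greenhouse and treated at the one-leaf stage, 2 to 3 weeks after sowing. WP or EC formulations were sprayed onto green parts at 600 to 800 l/ha water with 0.2% wetting agent. Visual % action versus untreated controls was scored after about 3 weeks.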

Assay [2] concerns AVEFA. Kind of assay: Post-emergence herbicidal action against AVEFA. The conditions noted are these: 80 g/ha, visual assessment after about 3 weeks. The assay is classed as in vivo, Avena fatua. In a few lines: as §1
Assay [3] has as its system DIGSA. Kind of assay: Post-emergence herbicidal action against DIGSA. The conditions noted are these: 80 g/ha, visual assessment about 3 weeks after treatment vs untreated controls. The assay is classed as in vivo, Digitaria sanguinalis. Put shortly: as §1
Assay [4] relates to ECHCG. Kind of assay: Post-emergence herbicidal action against ECHCG. The assay is classed as in vivo, Echinochloa crus-galli. The conditions noted are these: 80 g/ha, visual assessment about 3 weeks after treatment vs untreated controls. Put shortly:
as §1

The test system of assay [5] is LOLRI. The experiment in a line: Post-emergence herbicidal action against LOLRI. The conditions noted are these: 80 g/ha, visual assessment about 3 weeks after treatment vs untreated controls. The assay is classed as in vivo, Lolium rigidum. Put shortly:
as §1

In assay [6] the test system is SETVI. Kind of assay: Post-emergence herbicidal action against SETVI. The conditions noted are these: 80 g/ha, visual assessment about 3 weeks after treatment vs untreated controls. The assay is classed as in vivo, Setaria viridis. Put shortly: as §1
The test system of assay [7] is VERPE. The experiment in a line: Post-emergence herbicidal action against VERPE. The assay is classed as in vivo, Veronica persica. The conditions noted are these: 80 g/ha, visual assessment about 3 weeks after treatment vs untreated controls. How it is done:
Seeds of monocotyledonous and dicotyledonous weed and crop plants are laid out in sandy loam soil in wood-fiber pots, covered with soil and cultivated in a greenhouse under good growth conditions. 2 to 3 weeks after sowing, the test plants are treated at the one-leaf stage. The compounds of the invention, formulated in the form of wettable powders (WP) or as emulsion concentrates (EC), are then sprayed onto the green parts of the plants as aqueous suspension or emulsion at a water application rate equating to 600 to 800 l/ha with addition of 0.2% wetting agent. After the test plants have been left to stand in the greenhouse under optimal growth conditions for about 3 weeks, the action of the preparations is assessed visually in comparison to untreated controls (herbicidal action in percent (%): 100% activity=the plants have died, 0% activity=like control plants).

For another assay, the system named is HORMU. The experiment in a line: Post-emergence herbicidal action against HORMU. The assay is classed as in vivo, Hordeum murinum. The conditions noted are these: 80 g/ha, visual assessment about 3 weeks after treatment vs untreated controls. In a few lines:
as §1

The test system of assay [8] is ALOMY. The experiment in a line: Pre-emergence herbicidal action against ALOMY. The conditions noted are these: 320 g/ha, scored visually after 3 weeks vs untreated controls. The assay is classed as in vivo, Alopecurus myosuroides. Put shortly: (§2)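 Sandy loam, wood-fiber pots, seeds covered with soil. Spray onto soil surface: aqueous WP/EC, 600 to 800 L/ha, 0.2% wetting agent. Greenhouse 3 weeks; visual % score vs untreated controls.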

Assay [9] has as its system AVEFA. Kind of assay: Pre-emergence herbicidal action against AVEFA. It is filed as in vivo, Avena fatua. The conditions noted are these: 320 g/ha, scored visually after 3 weeks vs untreated controls. Put shortly: as §2
Assay [10] has as its system DIGSA. The experiment in a line: Pre-emergence herbicidal action against DIGSA. It is filed as in vivo, Digitaria sanguinalis. The conditions noted are these: 320 g/ha, scored visually after 3 weeks vs untreated controls. In a few lines:
as §2

The subject of assay [11] is ECHCG. Kind of assay: Pre-emergence herbicidal action against ECHCG. The assay is classed as in vivo, Echinochloa crus-galli. The conditions noted are these: 320 g/ha, scored visually after 3 weeks vs untreated controls. In a few lines: as §2
Assay [12] deals with LOLRI. Kind of assay: Pre-emergence herbicidal action against LOLRI (Table 8, titled post-emergence at 320 g/ha). The assay is classed as in vivo, Lolium rigidum. The conditions noted are these: table stands in the pre-emergence section. Put shortly: as §2
For assay [13], the system named is SETVI. Kind of assay: Pre-emergence herbicidal action against SETVI. It is filed as in vivo, Setaria viridis. The conditions noted are these: 320 g/ha, scored visually after 3 weeks vs untreated controls. In a few lines:
as §2

In another assay the test system is AMARE. Kind of assay: Pre-emergence herbicidal action against AMARE. The assay is classed as in vivo, Amaranthus retroflexus. The conditions noted are these: 320 g/ha. In a few lines: as §2
The next assay concerns POLCO. The experiment in a line: Pre-emergence herbicidal action against POLCO. It is filed as in vivo, Polygonum convolvulus. The conditions noted are these: 320 g/ha. Put shortly: as §2
In a further assay the test system is VIOTR. The experiment in a line: Pre-emergence herbicidal action against VIOTR. The conditions noted are these: 320 g/ha. It is filed as in vivo, Viola tricolor. In a few lines:
as §2

Assay [14] concerns VERPE. Kind of assay: Pre-emergence herbicidal action against VERPE. It is filed as in vivo, Veronica persica. The conditions noted are these: 320 g/ha. In a few lines: as §2
Assay [15] deals with ABUTH. The experiment in a line: Post-emergence herbicidal action against ABUTH. The assay is classed as in vivo, Abutylon threophrasti. The conditions noted are these: 80 g/ha, visual assessment about 3 weeks after treatment vs untreated controls. Put shortly: as §1
Another assay deals with MATIN. Kind of assay: Pre-emergence herbicidal action against MATIN. The assay is classed as in vivo. The conditions noted are these: 320 g/ha. In a few lines: as §2
Assay [16] relates to ABUTH. Kind of assay: Pre-emergence herbicidal action against ABUTH. It is filed as in vivo, Abutylon threophrasti. The conditions noted are these: 320 g/ha. In a few lines:
as §2

As to `CC#Cc1cc(Cl)c(C2=C(OC(=O)OCC)C3(CCC(COCC)C3)NC2=O)c(CC)c1` (stereo not drawn) [Example P-21], the “Post-emergence action against ALOMY in %” value in the assay with ALOMY [1] came out at 100%. In addition, the “Post-emergence action against AVEFA in %” value in the assay on AVEFA [2] stood at 100%. Further, in the assay on DIGSA [3], the “Post-emergence action against DIGSA in %” value is on record as 100%. Besides, the “Post-emergence action against ECHCG in %” value with ECHCG [4] came to 100%. Further, the “Post-emergence action against LOLRI in %” value with LOLRI [5] turned out to be 100%. Further, in the assay with SETVI [6], the “Post-emergence action against SETVI in %” value is listed as 100%. Also, the “Post-emergence action against VERPE in %” value with VERPE [7] is on record as 80%. Besides, in the assay with HORMU, the “Post-emergence action against HORMU in %” value stood at 100%.
With `CC#Cc1cc(C)c(C2=C(OC(=O)OCC)C3(CCC(COCC)C3)NC2=O)c(F)c1` (stereo not drawn) [Example P-54], the “Pre-emergence action against ALOMY in %” value in the assay on ALOMY [8] was 100%. For the same compound, the “Pre-emergence action against AVEFA in %” value in the assay on AVEFA [9] was found to be 90%. Further, in the assay with DIGSA [10], the “Pre-emergence action against DIGSA in %” value is on record as 100%. Further, the “Pre-emergence action against ECHCG in %” value in the assay on ECHCG [11] is listed as 100%. The “Pre-emergence herbicidal action against LOLRI in %” value in the assay on LOLRI [12] was 100%. Also, in the assay with SETVI [13], the “Pre-emergence action against SETVI in %” value was 100%. Moreover, the “Pre-emergence action against AMARE in %” value with AMARE is given as 100%. Further, the “Pre-emergence action against POLCO in %” value in the assay with POLCO amounted to 80%. For the same compound, in the assay on VIOTR, the “Pre-emergence action against VIOTR in %” value was found to be 100%. Further, in the assay on VERPE [14], the “Pre-emergence action against VERPE in %” value is recorded as 80%. In the assay on ALOMY [1], the “Post-emergence action against ALOMY in %” value was 100%. Besides, the “Post-emergence action against AVEFA in %” value in the assay with AVEFA [2] is on record as 100%. Also, in the assay with DIGSA [3], the “Post-emergence action against DIGSA in %” value stood at 100%. Also, the “Post-emergence action against ECHCG in %” value in the assay on ECHCG [4] is 100%. The “Post-emergence action against LOLRI in %” value with LOLRI [5] is 100%. Moreover, the “Post-emergence action against ABUTH in %” value in the assay on ABUTH [15] is reported as 80%. Besides, the “Post-emergence action against VERPE in %” value in the assay with VERPE [7] stood at 80%.
Turning to `CC#Cc1cc(C)c(C2=C(O)C3(CCC(COCC)C3)NC2=O)c(OC)c1` (stereo not drawn) [Example I-30], in the assay on ALOMY [8], the “Pre-emergence action against ALOMY in %” value is recorded as 100%. In the assay with AVEFA [9], the “Pre-emergence action against AVEFA in %” value is listed as 90%. Moreover, the “Pre-emergence action against DIGSA in %” value in the assay on DIGSA [10] is 100%. In the assay on ECHCG [11], the “Pre-emergence action against ECHCG in %” value is reported as 100%. In addition, in the assay on LOLRI [12], the “Pre-emergence herbicidal action against LOLRI in %” value was 100%. Also, in the assay with SETVI [13], the “Pre-emergence action against SETVI in %” value is given as 100%. In the assay with AMARE, the “Pre-emergence action against AMARE in %” value is recorded as 100%. Further, the “Pre-emergence action against MATIN in %” value in the assay with MATIN stood at 90%. The “Pre-emergence action against VIOTR in %” value in the assay with VIOTR came out at 100%. The “Post-emergence action against ALOMY in %” value in the assay on ALOMY [1] is reported as 90%. In the assay with AVEFA [2], the “Post-emergence action against AVEFA in %” value was 80%. Besides, the “Post-emergence action against DIGSA in %” value in the assay on DIGSA [3] is 100%. For the same compound, the “Post-emergence action against ECHCG in %” value with ECHCG [4] is 100%. In addition, in the assay with LOLRI [5], the “Post-emergence action against LOLRI in %” value is on record as 100%. In addition, the “Post-emergence action against ABUTH in %” value in the assay with ABUTH [15] is 80%. Moreover, the “Post-emergence action against VERPE in %” value in the assay with VERPE [7] came to 80%.
`CC#Cc1cc(C)c(C2=C(OC(=O)C(C)C)C3(CCC(COCC)C3)NC2=O)c(Cl)c1` (stereo not drawn) [Example P-29]: the “Pre-emergence action against ALOMY in %” value in the assay with ALOMY [8] was found to be 100%. The “Pre-emergence action against AVEFA in %” value in the assay on AVEFA [9] is 100%. In addition, the “Pre-emergence action against DIGSA in %” value with DIGSA [10] is given as 100%. The “Pre-emergence action against ECHCG in %” value with ECHCG [11] is on record as 100%. Besides, the “Pre-emergence herbicidal action against LOLRI in %” value in the assay with LOLRI [12] is 100%. In addition, the “Pre-emergence action against SETVI in %” value in the assay with SETVI [13] is reported as 100%. In the assay with ABUTH [16], the “Pre-emergence action against ABUTH in %” value is listed as 80%. For the same compound, the “Pre-emergence action against AMARE in %” value in the assay on AMARE came to 100%. The “Pre-emergence action against MATIN in %” value in the assay with MATIN is given as 90%. Also, the “Pre-emergence action against POLCO in %” value in the assay on POLCO turned out to be 90%. The “Pre-emergence action against VIOTR in %” value in the assay with VIOTR came to 100%. The “Pre-emergence action against VERPE in %” value with VERPE [14] came to 100%. Besides, the “Post-emergence action against ALOMY in %” value with ALOMY [1] worked out at 100%. The “Post-emergence action against AVEFA in %” value in the assay with AVEFA [2] amounted to 90%. In the assay on DIGSA [3], the “Post-emergence action against DIGSA in %” value is given as 100%. In the assay with ECHCG [4], the “Post-emergence action against ECHCG in %” value came to 100%. Further, in the assay on LOLRI [5], the “Post-emergence action against LOLRI in %” value was 100%. In addition, the “Post-emergence action against SETVI in %” value in the assay with SETVI [6] is 100%. Besides, the “Post-emergence action against VERPE in %” value in the assay with VERPE [7] stood at 80%.
